pIC50: −log10 of the molar value.
Molecular target: T1, human oxytocin receptor (Homo sapiens, UniProt P30559)
T1 construct: host or cells: CHO cells, stably transfected (pcDNA3.1 vector)
T1 sequence (P30559 1-389): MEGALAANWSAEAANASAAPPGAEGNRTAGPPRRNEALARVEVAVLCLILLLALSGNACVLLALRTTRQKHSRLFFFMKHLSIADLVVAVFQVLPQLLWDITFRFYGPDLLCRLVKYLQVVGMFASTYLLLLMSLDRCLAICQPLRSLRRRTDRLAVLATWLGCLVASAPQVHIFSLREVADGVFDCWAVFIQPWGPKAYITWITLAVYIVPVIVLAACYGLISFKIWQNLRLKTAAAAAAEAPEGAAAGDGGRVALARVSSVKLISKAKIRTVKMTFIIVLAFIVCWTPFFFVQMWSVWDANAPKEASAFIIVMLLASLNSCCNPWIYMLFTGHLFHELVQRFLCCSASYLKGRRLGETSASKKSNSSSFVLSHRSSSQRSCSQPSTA
Experiment: Oxytocin binding in CHO cell membranes expressing human oxytocin receptors ([3H]oxytocin radioligand binding)
Details: for pIC50: value in parentheses, read-out: OT (IC50); for inhibition at 0.1 µM: 100 nM, read-out: OT % inhibition @ 100 nM
Outline: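 CHO membranes expressing human oxytocin receptor (25–50 μg protein/well) incubated 60 min at room temperature with [3H]oxytocin in Tris-HCl pH 7.4 buffer with MgCl2, BSA and protease inhibitors. Filtration and scintillation counting; reported as % inhibition at a stated concentration or nM IC50.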

Row | pIC50 | inhibition at 0.1 µM [%] | SMILES
1 | 7.99 | – | COc1cc(-c2ccccc2C(F)(F)F)c(Cl)cc1C(=O)N1Cc2ccc(C(=O)N(C)Cc3cccnc3)n2Cc2ccccc21 [Example 5, 10-{[6-Chloro-3-methoxy-2′-trifluoromethyl-[1,1′-biphenyl]-4-yl]carbonyl}-N-methyl-N-(pyridin-3-ylmethyl)-10,11-dihydro-5H-pyrrolo[2,1-c][1,4]benzodiazepine-3-carboxamide]
2 | – | 93 | Cc1ccccc1-c1ccc(C(=O)N2Cc3ccc(C(=O)N(C)CCc4ccccn4)n3Cc3ccccc32)cc1 [Example 68, N-Methyl-10-[(2′-methyl-[1,1′-biphenyl]-4-yl)carbonyl]-N-[2-(2-pyridinyl)ethyl]-10,11-dihydro-5H-pyrrolo[2,1-c][1,4]benzodiazepine-3-carboxamide]
3 | – | 77 | COc1cccc(-c2cc(OC)c(C(=O)N3Cc4ccc(C(=O)N(C)CCc5ccccn5)n4Cc4ccccc43)cc2Cl)c1 [Example 70, 10-[(6-Chloro-3,3′-dimethoxy-[1,1′-biphenyl]-4-yl)carbonyl]-N-methyl-N-[2-(2-pyridinyl)ethyl]-10,11-dihydro-5H-pyrrolo[2,1-c][1,4]benzodiazepine-3-carboxamide]
4 | – | 99 | COc1ccccc1-c1ccc(C(=O)N2Cc3ccc(C(=O)N(C)Cc4cccnc4)n3Cc3ccccc32)cc1 [Example 104, 10-[(2′-Methoxy-[1,1′-biphenyl]-4-yl)carbonyl]-N-methyl-N-(3-pyridinylmethyl)-10,11-dihydro-5H-pyrrolo[2,1-c][1,4]benzodiazepine-3-carboxamide]
5 | – | 92 | Cc1ccccc1-c1ccc(C(=O)N2Cc3ccc(C(=O)N(C)CCc4ccccn4)n3Cc3ccccc32)cc1C [Example 66, 10-[(2,2′-Dimethyl-[1,1′-biphenyl]-4-yl)carbonyl]-N-methyl-N-[2-(2-pyridinyl)ethyl]-10,11-dihydro-5H-pyrrolo[2,1-c][1,4]benzodiazepine-3-carboxamide]
6 | – | 44 | COc1ccccc1-c1ccc(C(=O)N2Cc3ccc(C(=O)NCc4ccncc4)n3Cc3ccccc32)cc1C [Example 88, 10-[(2′-Methoxy-2-methyl-[1,1′-biphenyl]-4-yl)carbonyl]-N-(4-pyridinylmethyl)-10,11-dihydro-5H-pyrrolo[2,1-c][1,4]benzodiazepine-3-carboxamide]
7 | – | 50 | COc1cc(-c2ccccc2C)c(Cl)cc1C(=O)N1Cc2ccc(C(=O)N3CCN(c4ccccn4)CC3)n2Cc2ccccc21 [Example 81, {10-[(6-Chloro-3-methoxy-2′-methyl-[1,1′-biphenyl]-4-yl)carbonyl]-10,11-dihydro-5H-pyrrolo[2,1-c][1,4]benzodiazepin-3-yl}[4-(2-pyridinyl)-1-piperazinyl]methanone]
8 | 8.20 | – | COc1ccccc1-c1ccc(C(=O)N2Cc3ccc(C(=O)N(C)Cc4cccnc4)n3Cc3ccccc32)cc1OC [Example 103, 10-[(2,2′-Dimethoxy-[1,1′-biphenyl]-4-yl)carbonyl]-N-methyl-N-(3-pyridinylmethyl)-10,11-dihydro-5H-pyrrolo[2,1-c][1,4]benzodiazepine-3-carboxamide]
9 | – | 32 | CN(CCc1ccccn1)C(=O)c1ccc2n1Cc1ccccc1N(C(=O)c1ccc(-c3cccc4ccccc34)cc1Cl)C2 [Example 73, 10-[2-Chloro-4-(naphthalen-1-yl)benzoyl]-N-methyl-N-[2-(2-pyridinyl)ethyl]-10,11-dihydro-5H-pyrrolo[2,1-c][1,4]benzodiazepine-3-carboxamide]
10 | 7.97 | – | COc1cccc(-c2ccc(C(=O)N3Cc4ccc(C(=O)N(C)CCc5ccccn5)n4Cc4ccccc43)cc2C)c1 [Example 62, 10-[(3′-Methoxy-2-methyl-[1,1′-biphenyl]-4-yl)carbonyl]-N-methyl-N-[2-(2-pyridinyl)ethyl]-10,11-dihydro-5H-pyrrolo[2,1-c][1,4]benzodiazepine-3-carboxamide]
11 | 8.48 | – | COc1cc(C(=O)N2Cc3ccc(C(=O)N(C)Cc4cccnc4)n3Cc3ccccc32)ccc1-c1ccccc1C(F)(F)F [Example 7, 10-{[2-Methoxy-2′-trifluoromethyl-[1,1′-biphenyl]-4-yl]carbonyl}-N-methyl-N-(pyridin-3-ylmethyl)-10,11-dihydro-5H-pyrrolo[2,1-c][1,4]benzodiazepine-3-carboxamide]
12 | – | 49 | Cc1ccccc1-c1ccc(C(=O)N2Cc3ccc(C(=O)N4CCN(c5ccccn5)CC4)n3Cc3ccccc32)cc1 [Example 79, {10-[(2′-Methyl-[1,1′-biphenyl]-4-yl)carbonyl]-10,11-dihydro-5H-pyrrolo[2,1-c][1,4]benzodiazepin-3-yl}[4-(2-pyridinyl)-1-piperazinyl]methanone]
13 | – | 37 | COc1cc(-c2ccccc2C)c(Cl)cc1C(=O)N1Cc2ccc(C(=O)NCc3ccncc3)n2Cc2ccccc21 [Example 94, 10-[(6-Chloro-3-methoxy-2′-methyl-[1,1′-biphenyl]-4-yl)carbonyl]-N-(4-pyridinylmethyl)-10,11-dihydro-5H-pyrrolo[2,1-c][1,4]benzodiazepine-3-carboxamide]
14 | – | 59 | COc1ccccc1-c1ccc(C(=O)N2Cc3ccc(C(=O)N4CCN(c5ccccn5)CC4)n3Cc3ccccc32)cc1 [Example 78, {10-[(2′-Methoxy-[1,1′-biphenyl]-4-yl)carbonyl]-10,11-dihydro-5H-pyrrolo[2,1-c][1,4]benzodiazepin-3-yl}[4-(2-pyridinyl)-1-piperazinyl]methanone]
15 | – | -9 | Cc1ccccc1-c1ccc(C(=O)N2Cc3ccc(C(=O)N(C)Cc4cccnc4)n3Cc3ccccc32)cc1 [Example 105, N-Methyl-10-[(2′-methyl-[1,1′-biphenyl]-4-yl)carbonyl]-N-(3-pyridinylmethyl)-10,11-dihydro-5H-pyrrolo[2,1-c][1,4]benzodiazepine-3-carboxamide]
16 | – | 94 | COc1cc(C(=O)N2Cc3ccc(C(=O)N(C)CCc4ccccn4)n3Cc3ccccc32)ccc1-c1ccccc1C [Example 69, 10-[(2-Methoxy-2′-methyl-[1,1′-biphenyl]-4-yl)carbonyl]-N-methyl-N-[2-(2-pyridinyl)ethyl]-10,11-dihydro-5H-pyrrolo[2,1-c][1,4]benzodiazepine-3-carboxamide]
17 | 8.41 | – | Cc1cc(C(=O)N2Cc3ccc(C(=O)N(C)Cc4cccnc4)n3Cc3ccccc32)ccc1-c1ccccc1C(F)(F)F [Example 112, N-Methyl-10-{[2-methyl-2′-trifluoromethyl-[1,1′-biphenyl]-4-yl]carbonyl}-N-(3-pyridinylmethyl)-10,11-dihydro-5H-pyrrolo[2,1-c][1,4]benzodiazepine-3-carboxamide]
18 | 8.65 | – | COc1ccccc1-c1ccc(C(=O)N2Cc3ccc(C(=O)N(C)Cc4cccnc4)n3Cc3ccccc32)cc1C [Example 101, 10-[(2′-Methoxy-2-methyl-[1,1′-biphenyl]-4-yl)carbonyl]-N-methyl-N-(3-pyridinylmethyl)-10,11-dihydro-5H-pyrrolo[2,1-c][1,4]benzodiazepine-3-carboxamide]

Row | SMILES | pIC50 | inhibition at 0.1 µM [%]
19 | Cc1cc(C(=O)N2Cc3ccc(C(=O)N4CCN(c5ccncc5)CC4)n3Cc3ccccc32)ccc1-c1ccccc1C(F)(F)F [Example 1] | 7.95 | –

From patent US7064120B2, “Tricyclic pyridyl carboxamides and derivatives thereof tocolytic oxytocin receptor antagonists” (Wyeth, priority 2001, dated 2006)
